Source: patent EP2518159A1, “Method for determining the neurodevelopmental toxicity of a compound in vitro” (priority 2011, dated 2012)

Tests used:
Conditions in all cases: ES-D3 neural differentiation culture, exposed from day 3, harvested on day 4 (24h exposure); relative to DMSO control (1 = unchanged); 25 nM MeHg, 100 µM cyproconazole, 1000 µM valproic acid, 25 µM hexaconazole
[1] = test system: Car4; experiment: Gene expression change of Car4 in neural differentiation culture of embryonic stem cells (Affymetrix microarray)
Method: (§1) Murine embryonic stem cells (ESC) (ES-D3, ATCC, Rockville, MD, USA) were routinely subcultured every 2-3 days and grown as a monolayer in CM supplemented with leukemia inhibiting factor (LIF) (Chemicon, Temecula, CA, USA) at a final concentration of 1000 units/ml. The cells were maintained in a humidified atmosphere at 37°C and 5% CO2.
(§2) Differentiation of ESC into the neural lineage was carried out as described earlier (Theunissen et al., 2010). In brief, stem cell suspensions (3.75×10^4 cells/ml) were placed on ice before the initiation of the culture. Drops (20µl) containing 750 cells in CM were placed onto the inner side of the lid of a 90 cm Petri dish filled with phosphate-buffered saline (PBS) (Gibco BRL, Gaithersburg, MD) and incubated at 37 °C, 90% relative humidity and 5% CO2. After 3 days of hanging drop culture embryoid bodies (EB) had formed and were subsequently transferred to 60mm bacterial Petri dishes (Greiner Bio-one, Frickenhausen, Germany) containing CM supplemented with 0.5 µM retinoic acid (RA). On day 5, EB were plated on laminin (Roche, Basel, Switzerland) coated dishes (Corning Incorporated, Corning, NY, USA) in LS medium supplemented with 2.5 ug/ml fibronectin (Invitrogen, Carlsbad, CA, USA). One day later, on day 6, the LS medium was replaced by ITS medium. On day 7, EB were washed with phosphate buffered saline (PBS) (Gibco BRL, Gaithersburg, MD, USA) and incubated in cell dissociation buffer (Gibco BRL, Gaithersburg, MD, USA) for 3 minutes. Then EB were carefully detached from each Petri dish without dissociating the EBs and the entire content was replated on poly-L-ornithine (Sigma-Aldrich, Zwijndrecht, The Netherlands) and laminin coated dish in N2 medium supplemented with 10 ng/ml basic fibroblast growth factor (bFGF) (Srtathmann-Biotec AG, Englewood, CO, USA). The N2 medium supplemented with bFGF was replaced every other day for 7 days.
(§3) Control differentiation cultures were harvested on culture days 3, 4 and 5 (8 replicates per group). Differentiation cultures were exposed to the 3 neurodevelopmental toxicants and controls from day 3 onwards and harvested on day 4 (24h exposure) (8 replicates per group). Cells (-40-50 EB/sample) were directly collected in RNA Protect (Qiagen Benelux, Venlo, The Netherlands) to stabilize RNA, and total RNA was purified using the Qiagen RNEasy Plus Mini Kit (Qiagen Benelux, Venlo, The Netherlands) following the manufacturer's instructions. RNA quantity was determined using the NanoDrop Spectophotometer (Isogen Lifescience, de Meern, The Netherlands). RNA integrity was assessed on the 2100 Bioanalyzer (Agilent, Santa Clara, CA, USA) using the RNA 6000 Nano Chip Kit (Agilent, Santa Clara, CA, USA), and good quality RNA was used for gene expression analysis (RNA integrity number (RIN) > 8.0).

[2] = test system: Shisa6; experiment: Gene expression change of Shisa6 in neural differentiation culture of embryonic stem cells (Affymetrix microarray)
Method: as §1, §2, §3

[3] = test system: Emilin2; experiment: Gene expression change of Emilin2 in neural differentiation culture of embryonic stem cells (Affymetrix microarray)
Method: as §1, §2, §3

Row | Compound | Ratio, gene expression change Car4 [1] | Ratio, gene expression change Shisa6 [2] | Ratio, gene expression change Emilin2 [3]
1 | CCCCC(O)(Cn1cncn1)c1ccc(Cl)cc1Cl (stereo not drawn) [Hex, Hexaconazole] | 0.936 | 1.096 | 1.185
2 | CC(C1CC1)C(O)(Cn1cncn1)c1ccc(Cl)cc1 (stereo not drawn) [Cyp, Cyproconazole] | 0.777 | 1.228 | 1.270
3 | [CH3][Hg][Cl] [MeHg, Methylmercury chloride] | 0.686 | 1.380 | 1.351
4 | CCCC(CCC)C(=O)[O-].[Na+] [VPA, Valproic acid sodium salt] | 1.373 | 0.752 | 2.063
